From ChEMBL document CHEMBL3232809, “Synthesis, antibiotic activity and structure-activity relationship study of some 3-enaminetetramic acids” (2014)

Columns and labels:
Assay type in all cases: functional
Staphylococcus aureus [1] = assay: Antimicrobial activity against methicillin-sensitive Staphylococcus aureus ATCC 13709
Haemophilus influenzae [2] = assay: Antimicrobial activity against LS2 Efflux knock-out Haemophilus influenzae
Staphylococcus aureus [3] = assay: Antimicrobial activity against methicillin-resistant Staphylococcus aureus
Streptococcus pneumoniae [4] = assay: Antimicrobial activity against penicillin- and erythromycin-resistant Streptococcus pneumoniae
Escherichia coli [5] = assay: Antimicrobial activity against Escherichia coli ATCC 25922
Enterococcus faecium = assay: Antimicrobial activity against vancomycin-resistant Enterococcus faecium
Enterococcus faecalis = assay: Antimicrobial activity against vancomycin-susceptible Enterococcus faecalis ATCC 29212
Streptococcus pneumoniae [6] = assay: Antimicrobial activity against erythromycin-susceptible Streptococcus pneumoniae ATCC 49619
Haemophilus influenzae [7] = assay: Antimicrobial activity against Haemophilus influenzae ATCC 31517 MMSA
Streptococcus pneumoniae [8] = assay: Antimicrobial activity against penicillin- and erythromycin-resistant Streptococcus pneumoniae in presence of 2.5% horse blood
Pseudomonas aeruginosa = assay: Antimicrobial activity against Pseudomonas aeruginosa ATCC 27853
Staphylococcus aureus [9] = assay: Antimicrobial activity against vancomycin-susceptible Staphylococcus aureus ATCC 25923
Escherichia coli [10] = assay: Antimicrobial activity against Escherichia coli 49
Staphylococcus aureus [11] = assay: Antimicrobial activity against Staphylococcus aureus Oxford
Escherichia coli [12] = assay: Antimicrobial activity against Escherichia coli 50

Measured: MIC

CCCC(=O)N1CC(=O)/C(=C(\CCCCc2ccccc2)NC2CC(C)(C)N(C)C(C)(C)C2)C1=O
> 32 µg/mL: Staphylococcus aureus [1] | Haemophilus influenzae [2] | Staphylococcus aureus [3] | Streptococcus pneumoniae [4] | Escherichia coli [5] | Enterococcus faecium | Enterococcus faecalis | Streptococcus pneumoniae [6] | Haemophilus influenzae [7] | Streptococcus pneumoniae [8] | Pseudomonas aeruginosa | Staphylococcus aureus [9] | Escherichia coli [10] | Staphylococcus aureus [11] | Escherichia coli [12]

CCCCCCC(=O)N1CC(=O)/C(=C(\CCCOc2ccccc2)NCCCOC(C)C)C1=O
> 32 µg/mL: Staphylococcus aureus [1] | Haemophilus influenzae [2] | Staphylococcus aureus [3] | Streptococcus pneumoniae [4] | Escherichia coli [5] | Enterococcus faecium | Enterococcus faecalis | Streptococcus pneumoniae [6] | Haemophilus influenzae [7] | Streptococcus pneumoniae [8] | Pseudomonas aeruginosa | Staphylococcus aureus [9] | Escherichia coli [10] | Staphylococcus aureus [11] | Escherichia coli [12]

CCCCCCC(=O)N1CC(=O)/C(=C(\CCCCCC)NC2CCCCC2)C1=O
> 32 µg/mL: Staphylococcus aureus [1] | Haemophilus influenzae [2] | Staphylococcus aureus [3] | Streptococcus pneumoniae [4] | Escherichia coli [5] | Enterococcus faecium | Enterococcus faecalis | Streptococcus pneumoniae [6] | Haemophilus influenzae [7] | Streptococcus pneumoniae [8] | Pseudomonas aeruginosa | Staphylococcus aureus [9] | Escherichia coli [10] | Staphylococcus aureus [11] | Escherichia coli [12]

CSCCC1C(=O)/C(=C(\CC23CC4CC(CC(C4)C2)C3)NCC(C)(C)CN(C)C)C(=O)N1C(C)=O (stereo not given)
> 32 µg/mL: Staphylococcus aureus [1] | Haemophilus influenzae [2] | Staphylococcus aureus [3] | Streptococcus pneumoniae [4] | Escherichia coli [5] | Enterococcus faecium | Enterococcus faecalis | Streptococcus pneumoniae [6] | Haemophilus influenzae [7] | Streptococcus pneumoniae [8] | Pseudomonas aeruginosa | Staphylococcus aureus [9] | Escherichia coli [10] | Staphylococcus aureus [11] | Escherichia coli [12]

CCCCCCCCCC/C(NCCCOC(C)C)=C1\C(=O)C(CCSC)N(C(C)=O)C1=O (stereo not given)
> 32 µg/mL: Staphylococcus aureus [1] | Haemophilus influenzae [2] | Staphylococcus aureus [3] | Streptococcus pneumoniae [4] | Escherichia coli [5] | Enterococcus faecium | Enterococcus faecalis | Streptococcus pneumoniae [6] | Haemophilus influenzae [7] | Streptococcus pneumoniae [8] | Pseudomonas aeruginosa | Staphylococcus aureus [9] | Escherichia coli [10] | Staphylococcus aureus [11] | Escherichia coli [12]

CCN(CC)CCCC(C)N/C(CCCOc1ccccc1)=C1/C(=O)C(CC(C)C)N(C(=O)c2ccccc2)C1=O (stereo not given)
> 32 µg/mL: Staphylococcus aureus [1] | Haemophilus influenzae [2] | Staphylococcus aureus [3] | Streptococcus pneumoniae [4] | Escherichia coli [5] | Enterococcus faecium | Enterococcus faecalis | Streptococcus pneumoniae [6] | Haemophilus influenzae [7] | Streptococcus pneumoniae [8] | Pseudomonas aeruginosa | Staphylococcus aureus [9] | Escherichia coli [10] | Staphylococcus aureus [11] | Escherichia coli [12]

CC(C)(C)[C@H]1OC[C@@H]2C(=O)/C(=C(/NCCCCN)c3ccccc3)C(=O)N21
> 32 µg/mL: Staphylococcus aureus [1] | Haemophilus influenzae [2] | Staphylococcus aureus [3] | Streptococcus pneumoniae [4] | Escherichia coli [5] | Enterococcus faecium | Enterococcus faecalis | Streptococcus pneumoniae [6] | Haemophilus influenzae [7] | Streptococcus pneumoniae [8] | Pseudomonas aeruginosa | Staphylococcus aureus [9] | Escherichia coli [10] | Staphylococcus aureus [11] | Escherichia coli [12]

CC1CCCCN1CCCN/C(CC12CC3CC(C)(CC(C)(C3)C1)C2)=C1/C(=O)[C@@H]2CCCC(=O)N2C1=O (stereo not given in full)
> 32 µg/mL: Staphylococcus aureus [1] | Haemophilus influenzae [2] | Staphylococcus aureus [3] | Streptococcus pneumoniae [4] | Escherichia coli [5] | Enterococcus faecium | Enterococcus faecalis | Streptococcus pneumoniae [6] | Haemophilus influenzae [7] | Streptococcus pneumoniae [8] | Pseudomonas aeruginosa | Staphylococcus aureus [9] | Escherichia coli [10] | Staphylococcus aureus [11] | Escherichia coli [12]
